Measured values taken from PubChem BioAssay (NCI).
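Test compounds were applied to cells in 96-well plates for 48 hours at 5 doses. Here, GI50 denotes the concentration required for 50% inhibition of growth. TGI: concentration producing complete growth inhibition.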

Key:
Assay in all cases: DTP human tumour cell line panel, 48 h
HCT-15 colon = system: HCT-15 colon
HT29 colon = system: HT29 colon
OVCAR-3 ovarian = system: OVCAR-3 ovarian
NCI/ADR-RES ovarian = system: NCI/ADR-RES ovarian
RPMI-8226 leukemia = system: RPMI-8226 leukemia
UACC-257 melanoma = system: UACC-257 melanoma
MALME-3M melanoma = system: MALME-3M melanoma
EKVX NSCLC = system: EKVX NSCLC
MCF7 breast = system: MCF7 breast
COLO 205 colon = system: COLO 205 colon

Compound | TGI (HCT-15 colon) [µM] | TGI (HT29 colon) [µM] | TGI (OVCAR-3 ovarian) [µM] | TGI (NCI/ADR-RES ovarian) [µM] | TGI (RPMI-8226 leukemia) [µM] | TGI (UACC-257 melanoma) [µM] | TGI (MALME-3M melanoma) [µM] | TGI (EKVX NSCLC) [µM] | TGI (MCF7 breast) [µM] | TGI (COLO 205 colon) [µM] | GI50 (HCT-15 colon) [µM] | GI50 (EKVX NSCLC) [µM] | GI50 (COLO 205 colon) [µM] | GI50 (HT29 colon) [µM] | GI50 (OVCAR-3 ovarian) [µM] | GI50 (NCI/ADR-RES ovarian) [µM] | GI50 (RPMI-8226 leukemia) [µM] | GI50 (UACC-257 melanoma) [µM] | GI50 (MCF7 breast) [µM]
CN(CCO)Cc1ncccc1O | > 100 | > 100 | > 100 | > 100 | > 100 | > 100 | > 100 | > 100 | > 100 | > 100 | – | – | – | – | – | – | – | – | –
c1cc(-c2ccc(-c3nc4ccc(C5=NCCN5)cc4s3)s2)ccc1C1=NCCN1 | 16.6 | 2.08 | 5.25 | > 100 | 1.22 | > 100 | 1.4 | 2.69 | 0.255 | – | – | – | – | – | – | – | – | – | –
COC(=O)c1c(C)[nH]c2c1C(=O)C(=O)c1nc(C)c(C)nc1-2 | > 100 | 59.6 | 23.3 | 78.1 | 47.3 | 24.6 | 15.7 | 22.6 | 24.8 | 29.5 | – | – | – | – | – | – | – | – | –
CN1CC(c2ccccc2)C(O)(C2(c3ccccc3)CN(C)CC(c3ccccc3)C2=O)C(c2ccccc2)C1 (stereo unspecified) | > 100 | > 100 | > 100 | > 100 | > 100 | > 100 | – | > 100 | > 100 | > 100 | – | – | – | – | – | – | – | – | –
Clc1ccc(C2CC(c3cccc(Nc4ccncc4)c3)=NN2c2ccc(Cl)cc2)cc1 (stereo unspecified) | 2.95 | – | – | – | – | – | – | 3.04 | – | 4.75 | 1.55 | 1.58 | 2.09 | – | – | – | – | – | –
CCc1c2cc(OC)c(OC)cc2cc2c3cc(OC)c(OC)cc3cc[n+]12 (tested in a mixture with another compound) | > 61.7 | > 66.4 | > 89.8 | > 61.1 | > 47.3 | 59.3 | 44.2 | > 88 | > 91.6 | 22.8 | – | – | – | – | – | – | – | – | –
O=C(O)CCO/N=C1/C(c2c(O)[nH]c3ccccc23)=Nc2ccccc21 | 42.3 | 79.4 | 43.9 | > 100 | > 100 | > 100 | > 100 | 47.9 | > 100 | 35.1 | – | – | – | – | – | – | – | – | –
CC[C@@]1(OC(=O)CN(C)C)C(=O)OCc2c1cc1n(c2=O)Cc2cc3c(N)cccc3nc2-1 | > 100 | > 100 | 0.218 | 2.41 | 0.541 | 0.981 | – | 3.58 | > 100 | 6.9 | 0.317 | 0.262 | 0.656 | 0.118 | 0.0383 | 0.034 | 0.0636 | 0.0933 | 0.0115
OC(c1ccc(Cl)cc1)(c1ccc(Cl)cc1)c1cncnc1 | 39.8 | 32.1 | 32.2 | 74.8 | 85.3 | 40.5 | > 100 | – | 47.8 | 35.2 | – | – | – | – | – | – | – | – | –
CCCCN(CCCC)CCC(O)c1cc(-c2ccc(C(F)(F)F)cc2)nc(-c2ccc(C(F)(F)F)cc2)c1 (stereo unspecified) | > 100 | > 100 | > 100 | > 100 | > 100 | > 100 | > 100 | > 100 | > 100 | > 100 | – | – | – | – | – | – | – | – | –
COc1ccc(C(=O)O[C@H]2CC[C@@]3(C)[C@@H]4CC[C@H]5[C@]6(O)C[C@H](O)[C@@]7(O)[C@@H](CN8C[C@@H](C)CC[C@H]8[C@@]7(C)O)[C@]6(O)C[C@@]53OC24O)cc1OC | > 100 | > 100 | > 100 | > 100 | > 100 | > 100 | > 100 | > 100 | > 100 | > 100 | – | – | – | – | – | – | – | – | –
CN(C)CCCNc1ccc2nnn3c4ccc(OC(=O)c5ccccc5)cc4c(=O)c1c23 | 33.7 | 22.2 | 24.9 | 37.9 | 25.5 | 34.3 | 29.2 | 20.2 | 30 | 28.9 | – | – | – | – | – | – | – | – | –
O=S(=O)(O)c1cc(S(=O)(=O)O)c2cc(N=Nc3c(O)ccc4ccccc34)ccc2c1 | > 100 | > 100 | > 100 | > 100 | > 100 | > 100 | > 100 | > 100 | – | > 100 | – | – | – | – | – | – | – | – | –
CCOC(=O)Nc1sc2c(c1C#N)CC(C)CC2 (stereo unspecified) | > 100 | 10.9 | > 100 | 7.86 | 34.8 | 42.8 | 76.9 | > 100 | 24.5 | 18.2 | – | – | – | – | – | – | – | – | –
O=C1CCCC/C1=C1/SC(=Nc2ccccc2)C(=Nc2ccccc2)N1c1ccccc1 | > 100 | > 100 | > 100 | > 100 | > 100 | – | > 100 | – | > 100 | > 100 | – | – | – | – | – | – | – | – | –
O=C(Nn1c(-c2cccs2)nc2ccc(I)cc2c1=O)c1ccccc1 | > 100 | 90.6 | 39.3 | > 100 | 58.1 | 31.1 | – | 70.5 | > 100 | > 100 | – | – | – | – | – | – | 22.8 | – | 23.2

Compound | TGI (HCT-15 colon) [µM] | TGI (HT29 colon) [µM] | TGI (OVCAR-3 ovarian) [µM] | TGI (NCI/ADR-RES ovarian) [µM] | TGI (RPMI-8226 leukemia) [µM] | TGI (UACC-257 melanoma) [µM] | TGI (MALME-3M melanoma) [µM] | TGI (EKVX NSCLC) [µM] | TGI (MCF7 breast) [µM] | TGI (COLO 205 colon) [µM] | GI50 (HCT-15 colon) [µM] | GI50 (EKVX NSCLC) [µM] | GI50 (COLO 205 colon) [µM] | GI50 (HT29 colon) [µM] | GI50 (OVCAR-3 ovarian) [µM] | GI50 (NCI/ADR-RES ovarian) [µM] | GI50 (RPMI-8226 leukemia) [µM] | GI50 (UACC-257 melanoma) [µM] | GI50 (MCF7 breast) [µM]
CC1C2CCC3C(O)C2(CC(O)C2(O)C1CC(O)C2(C)C)CC3(C)O (stereo unspecified) | > 100 | > 100 | – | > 100 | – | > 100 | > 100 | > 100 | > 100 | > 100 | – | – | – | – | – | – | – | – | –
COc1ccc(/C=C2\C[C@H]3[C@@H]4CC=C5C[C@@H](OC(C)=O)CC[C@]5(C)[C@H]4CC[C@]3(C)\C2=N\O)cc1OC | > 100 | > 100 | > 100 | > 100 | 88.2 | > 100 | > 100 | 27.2 | > 100 | 27.1 | – | – | – | – | – | – | – | – | –
CCC1C(C#N)=C(O)NC(O)=C1C#N | > 100 | > 100 | > 100 | – | > 100 | > 100 | > 100 | > 100 | – | > 100 | – | – | – | – | – | – | – | – | –
O=C1C[C@H](COCc2ccccc2)NC(=O)C[C@H](COCc2ccccc2)NC(=O)C[C@H](COCc2ccccc2)N1 | > 100 | > 100 | > 100 | > 100 | > 100 | > 100 | > 100 | > 100 | > 100 | > 100 | – | – | – | – | – | – | – | – | –
COC1CC(OC2CCC3(C)C(=CCC4C3C(OC(C)=O)C(OC(=O)CC(C)C)C3(C)C(C(C)=O)CCC43O)C2)OC(C)C1OC1CC(OC)C(OC2CC(OC)C(OC3OC(C)C(O)C(OC)C3O)C(C)O2)C(C)O1 (stereo unspecified) | > 100 | 42.8 | > 100 | – | 45.8 | > 100 | > 100 | > 100 | 93.6 | 45 | – | – | – | – | – | – | – | – | –
CC[C@H](C)C1=C(OC(C)=O)[N@+]2([O-])Oc3ccc(-c4c(O)c(O)c(-c5ccc(OC(C)=O)cc5)c(OC(C)=O)c4OC(C)=O)cc3O[C@]2([C@@H](C)CC)C(=O)N1O | > 50 | > 50 | 37.5 | > 50 | 25.5 | > 50 | 46.6 | > 50 | > 50 | > 50 | – | – | – | – | – | – | – | – | –
Nc1c(OCC(=O)O)ccc2cc(S(=O)(=O)O)ccc12 | > 100 | – | > 100 | > 100 | > 100 | > 100 | > 100 | – | > 100 | > 100 | – | – | – | – | – | – | – | – | –
O=C(O)C(O)(c1ccc(-c2ccccc2)cc1)c1ccc(-c2ccccc2)cc1 | 41.5 | > 100 | 30.3 | 61.2 | > 100 | > 100 | 60.4 | 70.9 | – | – | – | – | – | – | – | – | – | – | –
CO/N=C(/C)c1cccc(Nc2nc3ccc(Cl)cc3c3[nH]c4ccccc4c23)c1 | 27.1 | – | 18.5 | 33 | 17 | 29.1 | – | – | 26.2 | 19.9 | – | – | – | – | – | – | – | – | –
C[C@]12Cc3cnc(-c4ccccc4)nc3C[C@@H]1CC[C@@H]1[C@@H]2CC[C@@]2(C)[C@H]1CC[C@]2(C)O | > 63.2 | 23.7 | 54.4 | 57 | 55 | 44.9 | 43.5 | > 87.1 | 76.5 | 43.2 | – | – | – | – | – | – | – | – | –
O=C(O)C1OC1C(=O)O (stereo unspecified) | > 100 | > 100 | > 100 | > 100 | > 100 | > 100 | > 100 | > 100 | > 100 | > 100 | – | – | – | – | – | – | – | – | –
CC(C)=Cc1cc(C)c2c3c(c(O)c(O)c(C)c13)C(C)=CC2=O | 51.3 | 32.1 | 52.7 | 81.5 | 15 | > 100 | – | – | 68.7 | 26.6 | – | – | – | – | – | – | – | – | –
O=NN1C(c2ccccc2)C2CCCC(C2=O)C1c1ccccc1 (stereo unspecified) | > 87.7 | 40.1 | 9.28 | > 89.6 | 48.4 | 66.2 | 19.8 | > 79.5 | 46.4 | 32 | – | – | – | – | – | – | – | – | –
Cc1cn(C2C=CC(COP(=O)(OCc3ccc([N+](=O)[O-])o3)N(C)CCCCCl)O2)c(=O)[nH]c1=O (stereo unspecified) | 35.7 | 27 | 4.8 | > 100 | 14.1 | 18.4 | 7.36 | – | 19.6 | 9.87 | – | – | – | – | – | – | – | – | –
NC1C=NNC1=O (stereo unspecified) | > 100 | > 100 | – | – | > 100 | > 100 | > 100 | > 100 | – | > 100 | – | – | – | – | – | – | – | – | –
CCOC(=O)c1nc2ccccc2n(CC)c1=O | > 100 | > 100 | > 100 | > 100 | > 100 | > 100 | > 100 | > 100 | > 100 | > 100 | – | – | – | – | – | – | – | – | –
